From patent US9226501B2, “Pesticidal compositions and processes related thereto” (Dow AgroSciences LLC, priority 2012, dated 2016)

Experiments:
[1] = system: Beet Armyworm (BAW) (spodoptera exigua); assay: Bioassay on beet armyworm (BAW), 128-well diet tray assay; assay type: in vivo; settings: for pest or weed control at 50 µg/cm2: Spodoptera exigua, 168 h, % mortality, second instar larvae, 50 μg/cm^2 on artificial diet, five to seven days, 25° C., read-out: BAW Rating; for BAW Rating: Table 5, prophetic compounds subsequently exemplified, beet armyworm
Protocol: (§1) Certain molecules disclosed in this document were tested against BAW, CEW and CL using procedures described in the following examples. In the reporting of the results, the “BAW & CEW & CL Rating Table” was used (See Table Section).
Bioassays on BAW were conducted using a 128-well diet tray assay. One to five second instar BAW larvae were placed in each well (3 mL) of the diet tray that had been previously filled with 1 mL of artificial diet to which 50 μg/cm^2 of the test compound (dissolved in 50 μL of 90:10 acetone-water mixture) had been applied (to each of eight wells) and then allowed to dry. Trays were covered with a clear self-adhesive cover, and held at 25° C., 14:10 light-dark for five to seven days. Percent mortality was recorded for the larvae in each well; activity in the eight wells was then averaged. The results are indicated in the tables entitled “Table 3: Assay Results Part 1” and “Table 4: Assay Results Part 2” (See Table Section).

[2] = system: Cabbage Looper (CL) (Trichoplusia ni); assay: Bioassay on cabbage looper (CL), 128-well diet tray assay; assay type: in vivo; settings: for pest or weed control at 50 µg/cm2: Trichoplusia ni, 168 h, % mortality, second instar larvae, 50 μg/cm^2 on artificial diet, five to seven days, 25° C., read-out: CL Rating; for CL Rating: Table 5, prophetic compounds subsequently exemplified, cabbage looper
Protocol: as §1
Bioassays on CL were conducted using a 128-well diet tray assay. One to five second instar CL larvae were placed in each well (3 mL) of the diet tray that had been previously filled with 1 mL of artificial diet to which 50 μg/cm^2 of the test compound (dissolved in 50 μL of 90:10 acetone-water mixture) had been applied (to each of eight wells) and then allowed to dry. Trays were covered with a clear self-adhesive cover, and held at 25° C., 14:10 light-dark for five to seven days. Percent mortality was recorded for the larvae in each well; activity in the eight wells was then averaged. The results are indicated in the table entitled “Table 4: Assay Results Part 2” (See Table Section).

## CC(F)(F)CNC(=O)C(C)(C)NC(=O)c1ccc(/C=C/C(c2cc(Cl)c(Cl)c(Cl)c2)C(F)(F)F)cc1Br (stereo not shown) [FA23]
[1]
  pest or weed control at 50 µg/cm2: 50 to 100%
[2]
  pest or weed control at 50 µg/cm2: 50 to 100%

## Cc1cc(C(/C=C/c2ccc(C(=O)N[C@H](C)C(=O)NCC(F)(F)F)c(C(F)(F)F)c2)C(F)(F)F)cc(C)c1F (stereo partly shown) [P516]
[1]
  BAW Rating: A (50-100)
[2]
  CL Rating: A (50-100)

## C[C@@H](NC(=O)c1ccc(/C=C/C(c2ccc(F)c(C#N)c2)C(F)(F)F)cc1C(F)(F)F)C(=O)NCC(F)(F)F (stereo partly shown) [P804]
[1]
  BAW Rating: A (50-100)
[2]
  CL Rating: A (50-100)

## CC(NC(=O)c1ccc(/C=C/C(c2cc(Cl)c(Cl)c(Cl)c2)C(F)(F)F)cc1C(F)(F)F)C(=O)NCCF (stereo not shown) [P1618A, (E)-N-(1-((2-Fluoroethyl)amino)-1-oxopropan-2-yl)-4-(4,4,4-trifluoro-3-(3,4,5-trichlorophenyl)but-1-en-1-yl)-2-(trifluoromethyl)benzamide]
[1]
  BAW Rating: A (50-100)
[2]
  CL Rating: A (50-100)

## Cc1cc(/C=C/C(c2cc(Br)cc(Br)c2)C(F)(F)F)ccc1C(=O)NCC(=O)NCC(F)(F)F (stereo not shown) [P1972]
[1]
  BAW Rating: A (50-100)
[2]
  CL Rating: A (50-100)

## CC(NC(=O)CNC(=O)c1ccc(/C=C/C(c2cc(Cl)c(Cl)c(Cl)c2)C(F)(F)F)cc1Br)C(F)(F)F (stereo not shown) [P1589]
[1]
  BAW Rating: A (50-100)
[2]
  CL Rating: A (50-100)

## C[C@@H](NC(=O)c1ccc(/C=C/C(c2ccc(Br)c(Br)c2)C(F)(F)F)cc1Br)C(=O)NCC(F)(F)F (stereo partly shown) [P568]
[1]
  BAW Rating: A (50-100)
[2]
  CL Rating: A (50-100)

## Cc1cc(/C=C/C(c2cc(Br)cc(Br)c2)C(F)(F)F)ccc1C(=O)NCC(=O)NC(C)C(F)(F)F (stereo not shown) [P2012]
[1]
  BAW Rating: A (50-100)
[2]
  CL Rating: A (50-100)

## O=C(CNC(=O)c1ccc(/C=C/C(c2cc(F)cc(C(F)(F)F)c2)C(F)(F)F)cc1Br)NCC(F)(F)F (stereo not shown) [P1340]
[1]
  BAW Rating: A (50-100)
[2]
  CL Rating: A (50-100)

## O=C(CNC(=O)c1ccc(/C=C/C(c2cc(C(F)(F)F)cc(C(F)(F)F)c2)C(F)(F)F)cc1Br)NCC(F)(F)F (stereo not shown) [P1269]
[1]
  BAW Rating: A (50-100)
[2]
  CL Rating: A (50-100)

## Fc1c(Cl)cc(C(/C=C/c2ccc(C(=S)NCC(=S)NCC(F)(F)F)c(Br)c2)C(F)(F)F)cc1Cl (stereo not shown) [P14]
[1]
  BAW Rating: B (More than 0-Less than 50)
[2]
  CL Rating: A (50-100)

## CC(C)(NC(=O)c1ccc(/C=C/C(c2cc(Cl)c(Cl)c(Cl)c2)C(F)(F)F)cc1Cl)C(=S)NCC(F)(F)F (stereo not shown) [FA9]
[1]
  pest or weed control at 50 µg/cm2: 50 to 100%
[2]
  pest or weed control at 50 µg/cm2: 50 to 100%

## O=C(NCC(=S)NCC(F)(F)F)c1ccc(/C=C/C(c2cc(Cl)c(F)c(Cl)c2)C(F)(F)F)cc1C(F)(F)F (stereo not shown) [P1866]
[1]
  BAW Rating: A (50-100)
[2]
  CL Rating: A (50-100)

## C[C@@H](NC(=O)c1ccc(/C=C/C(c2cc(Cl)cc(Cl)c2)C(F)(F)C(F)(F)F)cc1C(F)(F)F)C(=O)NCC(F)(F)F (stereo partly shown) [P1693]
[1]
  BAW Rating: A (50-100)
[2]
  CL Rating: A (50-100)

## CC(NC(=O)CNC(=O)c1ccc(/C=C/C(c2cc(Br)cc(Br)c2)C(F)(F)F)cc1Cl)C(F)(F)F (stereo not shown) [P2010]
[1]
  BAW Rating: A (50-100)
[2]
  CL Rating: A (50-100)

## C[C@@H](NC(=O)c1ccc(/C=C/C(c2cc(Br)cc(Br)c2)C(F)(F)F)cc1C(F)(F)F)C(=O)NCCF (stereo partly shown) [P2043]
[1]
  BAW Rating: A (50-100)
[2]
  CL Rating: A (50-100)

## Cc1cc(/C=C/C(c2cc(Cl)c(Cl)c(Cl)c2)C(F)(F)F)ccc1C(=O)NCC(=O)NCC(F)F (stereo not shown) [FA2]
[1]
  pest or weed control at 50 µg/cm2: 50 to 100%
[2]
  pest or weed control at 50 µg/cm2: 50 to 100%

## C[C@@H](NC(=O)c1ccc(/C=C/C(c2cccc(OC(F)(F)F)c2)C(F)(F)F)cc1C(F)(F)F)C(=O)NCC(F)(F)F (stereo partly shown) [P228]
[1]
  BAW Rating: A (50-100)
[2]
  CL Rating: A (50-100)

## Cc1cc(/C=C/C(c2cc(Cl)c(Cl)c(Cl)c2)C(F)(F)F)ccc1C(=O)NCC(=S)NCC(F)(F)F (stereo not shown) [P1560]
[1]
  BAW Rating: A (50-100)
[2]
  CL Rating: A (50-100)

## O=C(CNC(=O)c1ccc(/C=C/C(c2cc(Cl)cc(C(F)(F)F)c2)C(F)(F)F)cc1Br)NCC(F)(F)F (stereo not shown) [P1411]
[1]
  BAW Rating: A (50-100)
[2]
  CL Rating: A (50-100)
